Data on 7 compounds can be found in EP3193856B1, “FORMULATION” (Pharmaq AS, priority 2014, dated 2016).

Converted amounts (≈) assume the structure as drawn. Read-outs that look alike come from different tables or passages of the source. Some results are limits rather than exact numbers.

The test system of data set [1] is Atlantic salmon. Kind of data set: Safety of formulations based on different solvents after intraperitoneal injection. Format: in vivo. Particulars: i.p. 0.2 ml; 37.8 g, freshwater 17°C; 3 week period. The procedure: Atlantic salmon (average size: 37.8 g) kept in freshwater (17°C) were divided into 11 groups of 5 or 25 fish per group. Mortality was then logged over a 3 week period. […]

Data set [2] concerns Atlantic salmon. Particulars: in vivo, ip, 3 months. The method, then: To investigate the toxicity of the polar solvent further, formulations comprising different amounts of DMSO were prepared as detailed in Table 4. The formulations were intraperitoneally injected in a single dose into Atlantic salmon (19 - 38 g) kept in freshwater (8 - 17 °C). The eventual toxicity induced by each formulation was assessed by continuous registration of mortality up until 3 months post injection, and is shown in Table 4.
Therefore, it was extremely surprising to find that doses as low as about 1 g/kg cause mortality in Atlantic salmon.

Data set [3] relates to salmonids. Particulars: Benville et al 1968; cited from earlier work.
The conditions of data set [4]: cited from earlier work.
The nature of data set [5]: Solubility of hexaflumuron, solvent added gradually until complete dissolution. Particulars: for solubility: thermodynamic from solid. In kind it is physicochemical. The method, then:
In order to produce a formulation in which hexaflumuron was present in stable solution, the solubility of hexaflumuron in various other solvents was investigated. Solubility was determined by adding each solvent gradually to a specific mass of hexaflumuron until complete dissolution was observed.

For data set [6], the system named is Lepeophtheirus salmonis. Kind of data set: Sea lice challenge of treated Atlantic salmon. Particulars: for Mean number of lice per fish Treated group: chalimus stage counted 2 weeks post challenge, n=10; for Relative effect of treatment: versus untreated group. Format: in vivo. The procedure:
Atlantic salmon (total n=180) were kept in full seawater (3.5% salinity, 12°C). Half of the population (n=90) were treated with parasiticide (in this case hexaflumuron) on day 0. Treated and untreated fish (n=10 per group) were randomly collected from each group and challenged with copepodids of Lepeophtheirus salmonis in a common challenge tank during a 12 weeks period. This was done six times after treatments, in weeks 1, 3, 6, 8, 10 and 12 post treatment. The number of lice reaching chalimus stage was registered on each fish 2 weeks post challenge. Concentration of hexaflumuron in a portion of muscle with skin was also measured in each fish at the time of lice count.

The nature of data set [7]: Maximum solubility of hexaflumuron in PEG/DMSO/CA as a function of PEG molecular weight (Figure 6). In kind it is physicochemical. Particulars: PEG600/DMSO/CA mixture, organic solvent or mixture, thermodynamic from solid; formulation with 85% by weight PEG600 and 15% by weight DMSO. The procedure: An experiment was performed in order to investigate the solubility of parasiticide (hexaflumuron) in a formulation comprising PEG (85 mass%), DMSO (15 mass%), and CA (0.3 volume %) as a function of PEG molecular weight. Increasing amounts of hexaflumuron were dissolved in different mixtures of PEG/DMSO/CA (85/15/0.3) with PEG molecular weights ranging from 200 to 600.

For the compound `COCC(C)O` (stereo not shown) [1-methoxy-2-propanol], the “% Mortality” value in data set [1] came to 100%.

As a reminder, the LD50 is the dose at which mortality reaches 50%. On to `C[S+](C)[O-]` [DMSO, Dimethyl sulfoxide], for which the “doses at which DMSO was found to be toxic” value in data set [2] is more than 1000 mg/kg. Besides, in data set [3], the median lethal dose (LD50) is 12000 to 17000 mg/kg and the “dose reported not to give any mortality” value was 7050 mg/kg.

`CCOC(C)=O` [Ethyl acetate]: the “% Mortality” value in data set [1] is reported as 100%.

One may read the solubility as how much of the substance goes into solution per volume. Regarding `O=C(NC(=O)c1c(F)cccc1F)Nc1cc(Cl)c(OC(F)(F)C(F)F)c(Cl)c1` [Hexaflumuron], the “Hexaflumuron Solubility” value was 11300 µg/mL in data set [4] (solvent: Methanol); 0.027 µg/mL in data set [4] (solvent: Water); “about 2.7 x 10^-5 mg/ml” in data set [4] (solvent: Water, listed as hexaflumuron); 5200 µg/mL in data set [4] (solvent: Xylene); more than 300 mg/mL in data set [5] (solvent: DMSO). Further, the solubility was less than 1 mg/mL in data set [5] (oil or lipid, solvent: Isopropyl myristate); less than 0.1 mg/mL in data set [5] (oil or lipid, solvent: Paraffin Light Liquid); more than 130 mg/mL in data set [5] (organic solvent or mixture, solvent: Acetone); more than 300 mg/mL in data set [5] (organic solvent or mixture, solvent: DMA); more than 300 mg/mL in data set [5] (organic solvent or mixture, solvent: DMF); more than 300 mg/mL in data set [5] (organic solvent or mixture, solvent: DMSO). Also, the solubility in data set [5] (organic solvent or mixture, solvent: Ethyl acetate) is more than 75 mg/mL; in data set [5] (organic solvent or mixture, solvent: NMP), more than 300 mg/mL; in data set [5] (organic solvent or mixture, solvent: Propylene glycol (PG)), less than 0.5 mg/mL; in data set [5] (organic solvent or mixture, solvent: Tetraglycol), more than 75 mg/mL; in data set [5] (organic solvent or mixture, solvent: n-heptane) it was less than 0.5 mg/mL; in data set [7] it was approximately 130 mg/mL (≈ 282 mM). Moreover, the “Mean number of lice per fish Treated group” value worked out at 0 in data set [6] (challenged week 1 post treatment, Atlantic salmon, seawater 12°C); 0 in data set [6] (challenged week 3 post treatment); 0 in data set [6] (challenged week 6 post treatment); 0.2 in data set [6] (challenged week 8 post treatment); 1.7 in data set [6] (challenged week 10 post treatment); 27.6 in data set [6] (challenged week 12 post treatment). Besides, the “Relative effect of treatment” value is reported as 100% in data set [6] (week 1 post treatment); 100% in data set [6] (week 3 post treatment); 100% in data set [6] (week 6 post treatment); 98% in data set [6] (week 8 post treatment); 69% in data set [6] (week 10 post treatment); 47% in data set [6] (week 12 post treatment).

In the case of `CN1CCCC1=O` [NMP, n-methyl-2-pyrrolidone], the “% Mortality” value in data set [1] is on record as 100%.

As for `CC(O)CO` (stereo not shown) [PG, propylene glycol], the “% Mortality” value in data set [1] turned out to be 0%.

Glycofurol: the “% Mortality” value in data set [1] is recorded as 100%.
